Series [1] deals with patients of the CATIE study (schizophrenia). Kind of series: CATIE trial: change in PANSS score (delta PANSS, LOCF) for subjects stratified by GARP genetic signature status. Type of series: in vivo, human. The following applies: for Delta PANSS, Mean, GARP-1 negative: GARP-1 negative subjects; for Delta PANSS, Mean, GARP-1 negative / Delta PANSS, Mean, GARP-1 positive / Delta PANSS, Mean, GARP-2 negative / Delta PANSS, Mean, GARP-3 negative / Delta PANSS, Mean, GARP-3 positive / Delta PANSS, Mean, GARP-4 negative / Delta PANSS, Mean, GARP-4 positive / Delta PANSS, Mean, GARP-2 positive: LOCF, CATIE Phases 1-2; for response in GARP-1 positive subjects, in words: compared with GARP-1 negative subjects or with other drugs; for response in GARP-1 positive subjects, in words / Delta PANSS, Mean, GARP-1 positive: GARP-1 positive subjects; for Relative efficacy (positive), GARP-1: GARP-1 positive versus negative subjects; for Relative efficacy (positive), GARP-1 / Relative efficacy (positive), GARP-2 / Relative efficacy (positive), GARP-3 / Relative efficacy (positive), GARP-4: t-test; for Delta PANSS, Mean, GARP-2 negative: GARP-2 negative subjects; for response in GARP-2 positive subjects, in words: compared with GARP-2 negative subjects or with other drugs; for Relative efficacy (positive), GARP-2: GARP-2 positive versus negative subjects; for Delta PANSS, Mean, GARP-3 negative: GARP-3 negative subjects; for Delta PANSS, Mean, GARP-3 positive / response in GARP-3 positive subjects, in words: GARP-3 positive subjects; for Relative efficacy (positive), GARP-3: GARP-3 positive versus negative subjects; for Delta PANSS, Mean, GARP-4 negative: GARP-4 negative subjects; for Delta PANSS, Mean, GARP-4 positive: GARP-4 positive subjects; for Relative efficacy (positive), GARP-4: GARP-4 positive versus negative subjects; for response in GARP-2 positive subjects, in words / Delta PANSS, Mean, GARP-2 positive: GARP-2 positive subjects; for response in GARP-3 positive subjects, in words: compared with GARP-3 negative subjects or with other drugs. On the procedure:
The CATIE study, a large federally funded clinical trial designed to assess the efficacy of antipsychotics in a real world setting, is a valuable resource for determining the role of genes in baseline psychopathology and drug response (Lieberman et al., 2005; Stroup et al., 2003). […] Additionally, whole genome SNP genotyping was performed for roughly half of the trial participants (Sullivan et al., 2008).
Genotype and phenotype data for the CATIE trial were recently made available to qualified researchers through the NIMH Center for Collaborative Genetic Studies on Mental Disorders. The sample consisted of a total of 738 patients. Further details on the patient population are described in the study by Sullivan and coworkers (Sullivan et al., 2008). The CATIE SNP genotype data evaluated included a total of 492,900 SNPs located throughout the genome.
The design of the CATIE study has been described in detail by others (Lieberman et al., 2005; Stroup et al., 2003). […] Subjects that failed Phase 1 treatment with the typical antipsychotic perphenazine were treated differently than those subjects that failed phase I treatment with an atypical antipsychotic. Instead of entering into Phase II of the trial, subjects who switched from perphenazine entered Phase IB. […] Subjects who failed Phase IB then entered Phase II.
A total of 738 subjects consented to provide DNA for genetic study. […] Only retrospective genetic analyses, judged to be exempt from human studies requirements by an IRB, were conducted in the current study. For the genetic analyses presented herein, the inventors combined and evaluated drug response data for Phase IA, Phase IB, and Phase II of the CATIE study. All tested patients were studied using well established clinical endpoints comparing baseline, intermediate, and last observation carried forward (LOCF) for the PANSS scores using CATIE data. LOCF analysis is a commonly used clinical endpoint for clinical trials for neuropsychiatric drugs, with particular changes in PANSS scores being used to indicate clinically significant response (Leucht et al., 2009).
Using the clinical data from the CATIE trial, the inventors derived several different metrics used for quantifying response in clinical trials of antipsychotic medications. The most commonly used psychometric instrument is the Positive and Negative Syndrome Scale (PANSS), a 30-item semi-quantitative instrument scored by clinical professionals (Kay et al., 1987). The greater the decrease in PANSS score, the better the clinical response. The most direct measure of clinical response is absolute change in PANSS score (delta PANSS). In addition to absolute change, the improvement is often reported as a percentage change from baseline PANSS score.
As mentioned previously, the mean change in PANSS at LOCF provides an important measure of efficacy in patients undergoing antipsychotic treatments. Indeed, many pivotal trials in the psychosis field used absolute and/or percentage change in PANSS Score as the primary endpoint (Leucht et al., 2009). […] Therefore, the inventors determined the impact of segmentation by GARP genetic signature status on the quantitative measure of clinical improvement—delta PANSS (for LOCF).
Each table lists the six drugs used during the first two phases of the CATIE trial.

Series [2] concerns psychotic symptoms (PANSS). The following applies: versus first generation antipsychotics; cited from earlier work.
For series [3] the following is noted: hierarchy high / medium / low risk; cited from earlier work.
The test system of series [4] is psychotic symptoms (PANSS). Particulars: difference in mean response drug minus placebo arm, divided by standard deviation; negative = greater reduction in PANSS; cited from earlier work.

Structures are written as SMILES. Several values for one entry are separate records, joined by “and”; a condition that tells them apart may be missing. Equal entries are not always repeated. Entries after “also recorded” stand apart in the source; their conditions may differ.

Consider seven compounds from US20160273042A1, “GENETIC MARKERS OF ANTIPSYCHOTIC RESPONSE” (SUREGENE, LLC, priority 2013, published 2016).

Take `OCCN1CCN(CCCN2c3ccccc3Sc3ccc(Cl)cc32)CC1` [Perphenazine, perphenazine]: in series [1], the “Delta PANSS, Mean, GARP-1 negative” value was −6.40; the “response in GARP-1 positive subjects, in words” value is “decreased response; also recorded: Neither quetiapine nor perphenazine demonstrated efficacy”; the “Delta PANSS, Mean, GARP-1 positive” value is 2.84 and 2.8; the “Relative efficacy (positive), GARP-1” value was “Decreased”. In addition, in series [1], the “Delta PANSS, Mean, GARP-2 negative” value worked out at 0.52; the “response in GARP-2 positive subjects, in words” value is recorded as “enhanced response; also recorded: responded better; also recorded: superior efficacy”; the “Relative efficacy (positive), GARP-2” value is “Enhanced”; the “Delta PANSS, Mean, GARP-3 negative” value is on record as −5.5. Also, in series [1], the “Delta PANSS, Mean, GARP-3 positive” value came to 0.7; the “Relative efficacy (positive), GARP-3” value is on record as “Neutral”; the “Delta PANSS, Mean, GARP-4 negative” value is −4.7; the “Delta PANSS, Mean, GARP-4 positive” value is on record as −3.0. In addition, the “Relative efficacy (positive), GARP-4” value in series [1] is on record as “Neutral”.

Regarding `OCCOCCN1CCN(C2=Nc3ccccc3Sc3ccccc32)CC1` [Quetiapine, quetiapine], the “Effect Size vs. FGA” value in series [2] is listed as 0.01. For the same compound, the “risk for weight gain, classification” value in series [3] is listed as “medium risk”. In series [1], the “Delta PANSS, Mean, GARP-1 negative” value was −0.53; the “response in GARP-1 positive subjects, in words” value was “Neither quetiapine nor perphenazine demonstrated efficacy”; the “Relative efficacy (positive), GARP-1” value is “Neutral”; the “Delta PANSS, Mean, GARP-2 negative” value is reported as −2.86. For the same compound, in series [1], the “response in GARP-2 positive subjects, in words” value was “decreased response; also recorded: responded worse; also recorded: lack of efficacy”; the “Delta PANSS, Mean, GARP-2 positive” value was 1.51 and 1.5; the “Relative efficacy (positive), GARP-2” value is reported as “Decreased”; the “Delta PANSS, Mean, GARP-3 negative” value is listed as −0.1. Also, in series [1], the “response in GARP-3 positive subjects, in words” value is on record as “enhanced response; also recorded: responded significantly better”; the “Delta PANSS, Mean, GARP-3 positive” value is listed as −4.3; the “Relative efficacy (positive), GARP-3” value is given as “Neutral”; the “Delta PANSS, Mean, GARP-4 negative” value was −0.7. Also, in series [1], the “Delta PANSS, Mean, GARP-4 positive” value is given as −1.6 and the “Relative efficacy (positive), GARP-4” value is recorded as “Neutral”. Besides, the “Effect Size vs. Placebo” value in series [4] is recorded as −0.42.

Consider `O=C1Cc2cc(CCN3CCN(c4nsc5ccccc45)CC3)c(Cl)cc2N1` [Ziprasidone, ziprasidone], for which the “Effect Size vs. FGA” value in series [2] was −0.04. Further, the “risk for weight gain, classification” value in series [3] was “low risk”. In series [1], the “Delta PANSS, Mean, GARP-1 negative” value was −2.94; the “response in GARP-1 positive subjects, in words” value was “worsening of symptoms”; the “Delta PANSS, Mean, GARP-1 positive” value is 12.72 and 12.7; the “Relative efficacy (positive), GARP-1” value is listed as “Decreased”. In addition, in series [1], the “Delta PANSS, Mean, GARP-2 negative” value came out at 3.51; the “response in GARP-2 positive subjects, in words” value is given as “enhanced response”; the “Delta PANSS, Mean, GARP-2 positive” value is reported as −2.8; the “Relative efficacy (positive), GARP-2” value is listed as “Enhanced”. In addition, in series [1], the “Delta PANSS, Mean, GARP-3 negative” value was −0.1; the “Delta PANSS, Mean, GARP-3 positive” value is −4.5; the “Relative efficacy (positive), GARP-3” value is on record as “Neutral”; the “Delta PANSS, Mean, GARP-4 negative” value is 0.4. Moreover, in series [1], the “Delta PANSS, Mean, GARP-4 positive” value is reported as −4.3 and the “Relative efficacy (positive), GARP-4” value was “Neutral”. Also, the “response in GARP-1 positive subjects, in words” value in series [1] (listed as ziprasidone) is recorded as “decreased response; also recorded: responded particularly poorly; also recorded: NON-response”. In series [4], the “Effect Size vs. Placebo” value is listed as −0.48.

Turning to `CN1CCN(C2=Nc3cc(Cl)ccc3Nc3ccccc32)CC1` [Clozapine, clozapine], in series [1], the “Delta PANSS, Mean, GARP-1 negative” value is reported as −15.32; the “Delta PANSS, Mean, GARP-1 positive” value is on record as −14.0; the “Delta PANSS, Mean, GARP-2 negative” value was −24.33; the “Delta PANSS, Mean, GARP-3 negative” value is listed as −13.6. Moreover, in series [1], the “Delta PANSS, Mean, GARP-3 positive” value is given as −31; the “Delta PANSS, Mean, GARP-4 negative” value is given as −13.4; the “Delta PANSS, Mean, GARP-4 positive” value was −26.3. Moreover, the “worse response of GARP-2 positive than GARP-2 negative patients” value in series [1] (difference in delta PANSS, GARP-2 positive vs negative) was roughly 20 points.

Take `Cc1cc2c(s1)Nc1ccccc1N=C2N1CCN(C)CC1` [Olanzapine, olanzapine]: the “risk for weight gain, classification” value in series [3] is given as “high risk”. For the same compound, in series [1], the “Delta PANSS, Mean, GARP-1 negative” value is given as −7.48; the “Relative efficacy (positive), GARP-1” value is reported as “Enhanced”; the “Delta PANSS, Mean, GARP-2 negative” value is reported as −10.73; the “Relative efficacy (positive), GARP-2” value was “Neutral”. For the same compound, in series [1], the “Delta PANSS, Mean, GARP-3 negative” value was −9.5; the “Delta PANSS, Mean, GARP-3 positive” value is recorded as −6.3; the “Relative efficacy (positive), GARP-3” value is “Neutral”; the “Delta PANSS, Mean, GARP-4 negative” value is recorded as −9.0. For the same compound, in series [1], the “Delta PANSS, Mean, GARP-4 positive” value is −9.3 and the “Relative efficacy (positive), GARP-4” value is recorded as “Neutral”.

In the case of `O=C1CCc2ccc(OCCCCN3CCN(c4cccc(Cl)c4Cl)CC3)cc2N1` [aripiprazole], the “risk for weight gain, classification” value in series [3] is recorded as “low risk”. Also, the “response in GARP-1 positive subjects, in words” value in series [1] is given as “NON-response”.

In the case of `Cc1nc2n(c(=O)c1CCN1CCC(c3noc4cc(F)ccc34)CC1)CCCC2` [Risperidone, risperidone], in series [2], the “Effect Size vs. FGA” value was −0.25. In addition, the “risk for weight gain, classification” value in series [3] is given as “medium risk”. Besides, in series [1], the “Delta PANSS, Mean, GARP-1 negative” value is on record as −4.55; the “response in GARP-1 positive subjects, in words” value is given as “enhanced response; also recorded: significant efficacy”; the “Relative efficacy (positive), GARP-1” value was “Enhanced”; the “Delta PANSS, Mean, GARP-2 negative” value is on record as −4.65. Also, in series [1], the “response in GARP-2 positive subjects, in words” value is listed as “superior efficacy”; the “Relative efficacy (positive), GARP-2” value is reported as “Neutral”; the “Delta PANSS, Mean, GARP-3 negative” value is on record as −6.9; the “response in GARP-3 positive subjects, in words” value is “decreased response; also recorded: responded poorly”. Moreover, in series [1], the “Delta PANSS, Mean, GARP-3 positive” value was 2.1; the “Relative efficacy (positive), GARP-3” value is recorded as “Decreased”; the “Delta PANSS, Mean, GARP-4 negative” value is −5.4; the “Delta PANSS, Mean, GARP-4 positive” value is recorded as −6.7. Also, the “Relative efficacy (positive), GARP-4” value in series [1] is recorded as “Neutral”. Also, in series [4], the “Effect Size vs. Placebo” value was −0.59.
